{
  "source": "ChEMBL document CHEMBL1127178",
  "about": "“Nucleosides and nucleotides. 117. A transition-state analogue in purine nucleotide biosynthesis: the design and synthesis of an imidazo[4,5-c]azepine nucleoside” (Bioorg Med Chem Lett, 1993)",
  "system": "L1210",
  "experiment": "Cytotoxicity of compound was determined in terms of effective concentration required against murine L1210 cells",
  "type": "functional, cell-based",
  "settings": "Mus musculus",
  "data": [
    {"smiles": "O=C1NC(O)C=Cc2c1ncn2C1O[C@H](CO)C(O)[C@H]1O", "note": "(single isomer, unassigned)", "values": [
      {"measurement": "EC50", "value": 5, "unit": "µg/mL"}
    ]}
  ]
}
